{"source": "patent US7384975B2", "about": "“Substituted furochromenes, preparation thereof and their antiinflammatory action” (GlaxoSmithKline Istrazivacki Centar Zagreb d.o.o., priority 2003, dated 2008)", "system": "Balb/C mice", "assay": "Model of lung eosinophilia in mice (ovalbumin sensitization and provocation)", "format": "in vivo", "details": "i.n. 2 mg/kg daily from 2 days prior to the provocative test until the end, lavage 48 hours after ovalbumin provocation", "procedure": "Model of Lung Eosinophilia in Mice\nMale Balb/C mice (Charles River) of 20-25 g of body weight were randomly divided into groups. They were sensitized by i.p. application of ovalbumin (Sigma) on days zero and fourteen. On day twenty the mice were subjected to a provocative test by i.n. application of ovalbumin (positive control and test groups) or PBS (negative control). After 48 hours the animals were anesthetized and the lungs were rinsed with 1 mL of PBS. The cells were centrifuged on Cytospin 3 cytocentrifuge (Shandon). Then the cells were stained with Diff-Quick (Dade) and the percentage of eosinophils was determined by differential counting of at least 100 cells.\nBeclomethazone was used as a standard substance in addition to positive and negative controls. The compound was applied daily i.n. in a dose of 2 mg/kg for 2 days prior to the provocative test and until the end of the investigation.\nThe compound 13 reduced the number of eosinophils in the lavage and histological preparations of lungs for 50% in relation to the positive control group.", "data": [{"compound": "O=c1oc2cc(O)cc(O)c2c(O)c1-c1cc2c(=O)oc3cc(O)cc(O)c3c2o1", "note": "[Compound 13, 7,9-Dihydroxy-2-(4,5,7-trihydroxy-2-oxo-2H-chromene-3-yl)-4H-furo[3,2-c]chromene-4-one]", "values": [{"measurement": "reduction of the number of eosinophils in the lavage and histological preparations of lungs in relation to the positive control group", "result": 50, "unit": "%"}]}]}
